Experiments:
sigma (σ) receptors = conditions: cited from earlier work
[1] = target: 5HT2B serotonergic receptor (Homo sapiens, UniProt P41595); experiment: PDSP radioligand binding, 5HT2B; conditions: full concentration-response curves, n = 3-6 unless noted
[2] = target: T1, 5HT2C serotonergic receptor (Homo sapiens, UniProt P28335); experiment: PDSP radioligand binding, 5HT2C; conditions: full concentration-response curves, n = 3-6 unless noted
T1 sequence (P28335 33-458): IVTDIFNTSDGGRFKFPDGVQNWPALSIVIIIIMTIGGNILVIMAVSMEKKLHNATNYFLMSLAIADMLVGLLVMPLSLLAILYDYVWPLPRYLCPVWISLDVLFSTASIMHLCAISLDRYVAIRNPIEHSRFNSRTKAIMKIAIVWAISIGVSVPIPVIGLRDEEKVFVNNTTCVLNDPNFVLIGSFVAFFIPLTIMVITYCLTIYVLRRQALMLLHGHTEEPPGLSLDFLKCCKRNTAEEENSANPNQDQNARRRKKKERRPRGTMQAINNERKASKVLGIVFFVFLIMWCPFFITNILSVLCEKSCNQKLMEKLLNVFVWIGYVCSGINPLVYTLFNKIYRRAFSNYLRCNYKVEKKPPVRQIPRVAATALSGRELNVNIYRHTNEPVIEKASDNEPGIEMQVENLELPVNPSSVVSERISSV

[3] = test system: peripheral cholecystokinin receptors; conditions: cited from earlier work
[4] = test system: 41 diverse receptors, channels and a transporter; experiment: PDSP broad screen: summary of off-target interactions; conditions: besides 5HT2B and 5HT2C

5HT2B serotonergic receptor, sequence (P41595 whole entry): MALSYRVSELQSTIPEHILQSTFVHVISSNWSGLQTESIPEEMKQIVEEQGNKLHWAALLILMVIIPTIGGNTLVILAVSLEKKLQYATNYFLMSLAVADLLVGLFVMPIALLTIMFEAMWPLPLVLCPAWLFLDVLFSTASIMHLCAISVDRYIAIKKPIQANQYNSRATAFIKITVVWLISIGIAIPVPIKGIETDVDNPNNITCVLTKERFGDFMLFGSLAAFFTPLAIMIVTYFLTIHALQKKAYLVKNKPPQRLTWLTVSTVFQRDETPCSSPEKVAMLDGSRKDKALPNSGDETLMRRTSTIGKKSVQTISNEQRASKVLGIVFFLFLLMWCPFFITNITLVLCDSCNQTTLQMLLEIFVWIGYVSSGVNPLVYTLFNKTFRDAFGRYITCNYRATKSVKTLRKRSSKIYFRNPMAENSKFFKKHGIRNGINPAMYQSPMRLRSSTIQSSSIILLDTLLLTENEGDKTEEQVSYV

CNC(=O)[C@H]1O[C@@H](n2cnc3c(NCc4cccc(I)c4)ncnc32)[C@H](O)[C@@H]1O [IB-MECA, N ^6-(3-iodobenzyl)-5′-N-methylcarboxamidoadenosine]
binding inhibition at 10 µM (sigma (σ) receptors): 50–70%
Ki [1]: 1.08 µM
Ki [2]: 5.42 µM
binding inhibition at 10 µM [3]: 50–70%
other off-target interactions in pharmacological screening [4]: no other off-target interactions

Reference: publication PMC4032265 (PLoS ONE, 2014)
